Measured values: US20070185122A1, “Use of efletirizine for treating persistent allergic rhinitis” (priority 2003, published 2007)

What was measured:
[1] = target: histamine H1-receptor (Homo sapiens, UniProt P35367); test: in vitro affinity and selectivity for H1-receptors; type: binding
[2] = tested on: persistent allergic rhinitis; test: clinical study of efletirizine dihydrochloride in persistent allergic rhinitis (T5SS, RQLQ, SF-36), placebo-controlled; type: in vivo, adult patients; settings: patients with persistent allergic rhinitis
Text: A study relative to the clinical effect of efletirizine dihydrochloride is planed to establish on the intention to treat (ITT population) whether an approximately 6 month efletirizine treatment can improve the quality of life and clinical symptoms from adult patients suffering from persistent allergic rhinitis, when compared to placebo.
Secondary parameters of efficacy include different durations of treatment, different symptoms, different quality of life questionnaires, the incidence of co-morbidities suspected to be linked to allergic rhinitis and pharmaco-economic variables. The safety of this long-term treatment with efletirizine is also evaluated.
The target population of this study consists of adults aged more than 18 years suffering from persistent allergic rhinitis [WHO Initiative on Allergic Rhinitis and its Impact on Asthma (ARIA), 2000, pages S147-S149]. To be enrolled, the subjects need to have sufficient rhinitis symptoms during the selection period. Excluded are patients with ENT (Ear-Nose-Throat) or eye infection preceding initial visit. […]
The severity of clinical symptoms is rated by the T5SS (sneezing, rhinorrhea, nasal pruritus, ocular pruritus and nasal congestion) evaluated each by a score from 0 to 3 each day. The impact on health related quality of life is measured using the Rhinoconjunctivitis Quality of Life Questionnaire (RQLQ, SF36) (E. JUNIPER and G. H. GUYATT, Development and testing of a new measure of health status for clinical trials in rhinoconjunctivitis, Clinical and Experimental Allergy 1991; 21:77-83; E. JUNIPER, Measuring Health Related Quality of Life in rhinitis, J. Allergy Clin. Immunol. 1997; 99:S742-9). […]
At each of the visits, diary book entries (T5SS, RQLQ, SF-36, indirect cost pharmaco-economic parameters, concomitant medication, outpatient consultations and adverse events) are verified and transferred into the Clinical Record Form and direct cost pharmaco-economic parameters will be recorded. […]
Adverse events are recorded by the patients on diary cards and discussed with the investigator at each visit. […]

Sequence of histamine H1-receptor (P35367 whole entry, species assumed): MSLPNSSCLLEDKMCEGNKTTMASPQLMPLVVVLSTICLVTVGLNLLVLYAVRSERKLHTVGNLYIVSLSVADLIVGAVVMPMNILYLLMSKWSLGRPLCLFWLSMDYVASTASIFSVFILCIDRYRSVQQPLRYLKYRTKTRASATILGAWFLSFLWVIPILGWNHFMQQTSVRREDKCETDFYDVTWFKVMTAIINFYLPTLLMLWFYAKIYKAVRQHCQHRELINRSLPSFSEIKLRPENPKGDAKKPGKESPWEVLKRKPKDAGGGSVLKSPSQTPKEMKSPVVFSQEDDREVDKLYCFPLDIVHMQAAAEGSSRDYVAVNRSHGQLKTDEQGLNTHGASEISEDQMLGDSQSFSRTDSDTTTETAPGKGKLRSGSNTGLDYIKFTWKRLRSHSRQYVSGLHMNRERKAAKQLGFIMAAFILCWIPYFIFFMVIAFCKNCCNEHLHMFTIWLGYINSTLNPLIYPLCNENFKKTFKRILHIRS

## O=C(O)COCCN1CCN(C(c2ccc(F)cc2)c2ccc(F)cc2)CC1 [Efletirizine, 2-[2-[4-[Bis(4-fluorophenyl)methyl]-1-piperazinyl]ethoxy]acetic acid]
[1]
  affinity for H1-receptors: high affinity

## Cl.Cl.O=C(O)COCCN1CCN(C(c2ccc(F)cc2)c2ccc(F)cc2)CC1 [efletirizine dihydrochloride]
[2]
  duration of effect on persistent rhinitis: more than 4 weeks
  duration of effect on quality of life: more than 4 weeks
  effect on nasal congestion: has an effect on nasal congestion
